Results: patent publication US4200629A, “Anti-fungal substance and preparing method thereof” (priority 1977, dated 1980)
Where a name gives a salt, the structure may show the parent alone.

Experiments:
[1] = tested on: Candida albicans; assay: inhibitory effect, antifungal test disk (Test Example 2); type: cell-based; conditions: 8 mm disk, 0.005 g active ingredient
Description: (§1) Each test fungal liquid was mixed with a Sabouraud's agar medium containing 0.1% of Tween 80 to form a multilayered fungal agar film, which was then solidified.

[2] = tested on: Trichophyton mentagrophytes; assay: as above; type: cell-based; conditions: 8 mm disk, 0.005 g active ingredient
Description: as §1

[3] = solubility in phosphate buffer solution
[4] = tested on: Aspergillus fumigatus; assay: inhibitory effect, antifungal test disk (Test Example 2); type: cell-based; conditions: 8 mm disk, 0.005 g active ingredient
Description: as §1

[5] = tested on: Cryptococcus neoformans; assay: as above; type: cell-based; conditions: 8 mm disk, 0.005 g active ingredient
Description: as §1

[6] = tested on: medical fungi (Aspergillus, Candida, Trichophyton); assay: growth inhibition of fungi (general statements); type: cell-based
Procedure: Each of the components is separated and tested with respect to the activity of growth inhibition of Aspergillus fumigatus, Candida albicans and Trichophyton mentagrophytes, respectively, according to the disk method.
Using 0.01 ml. of the resulting solution, the growth inhibitory effect of each powder against fungi was tested according to the disk method.

[7] = acute toxicity, LD50 oral; conditions: mouse, in vivo, comparison with NT-72 orally in mice, source not stated

| SMILES | inhibitory circle diameter [1] [mm] | inhibitory circle diameter (Trace) [1] [mm] | inhibitory circle diameter [2] [mm] | solubility in the phosphate buffer solution [3] | inhibitory circle diameter [4] [mm] | inhibitory circle diameter (Trace) ([4]; trace) [mm] | inhibitory circle diameter (Trace) ([5]; trace) [mm] | inhibitory circle diameter [5] [mm] | activity of butanol extract after sodium borohydride reduction [6] | LD50 [7] [mg/kg] |
| --- | --- | --- | --- | --- | --- | --- | --- | --- | --- | --- |
| C[C@@H]1[C@H](O)[C@@H](C)/C=C/C=C/C=C/C=C/C=C/C=C/C=C/[C@H](O[C@@H]2O[C@H](C)[C@@H](O)[C@H](N)[C@@H]2O)C[C@@H]2O[C@](O)(C[C@@H](O)C[C@@H](O)[C@H](O)CC[C@@H](O)C[C@@H](O)CC(=O)O[C@H]1C)C[C@H](O)[C@H]2C(=O)O [Amphotericin B] | 11 | 14 | 8.5 | – | – | – | – | – | – | – |
| Clc1ccccc1C(c1ccccc1)(c1ccccc1)n1ccnc1 [Byb 5097] | 17 | 22 | 24 | not sufficiently soluble | 12.5 | 18 | 18 | – | – | – |
| C[C@@H]1[C@H](O)[C@@H](C)/C=C/C=C/CC/C=C/C=C/C=C/C=C/C(O[C@H]2O[C@H](C)[C@@H](O)[C@H](N)[C@@H]2O)CC2O[C@](O)(CC(O)C(O)CCC(O)CC(O)CC(O)CC(=O)O[C@H]1C)CC(O)C2C(=O)O (some centres unmarked) [Nystatin] | 21 | – | 12.5 | not sufficiently soluble | 12 | – | – | 11 | – | – |
| COc1ccc2cc3[n+](cc2c1OC)CCc1cc2c(cc1-3)OCO2 [berberine hydrochloride] | – | – | – | – | – | – | – | – | does not show the activity | 60 to 70 |
